Here are results for 5 molecules from ChEMBL document CHEMBL1177881, “Synthesis and GABAA receptor activity of A-homo analogues of neuroactive steroids” (Eur J Med Chem, 2010).

Each structure is given as a SMILES string.

The species named for test [1] is Rattus norvegicus. As to the kind of experiment: Displacement of [35S]TBPS from GABAA receptor in rat cerebellum at 10 uM to 1 nM after 60 mins. Format: tissue-based. (Displacement assays read how much labelled ligand stays bound in the presence of the test substance.)
Test [2] can be described thus: Displacement of [35S]TBPS from GABAA receptor in rat cerebellum after 60 mins. Format: tissue-based.

On to `CC(=O)[C@H]1CC[C@H]2[C@@H]3CC[C@H]4CC[C@@H](O)CC[C@]4(C)[C@H]3CC[C@]12C`, for which the Imax in test [1] was found to be 46.2%. The molecule also registered a half-maximal inhibitory concentration (IC50) in test [2] of 1000 nM.

Turning to `CC(=O)[C@H]1CC[C@H]2[C@@H]3CC=C4CC[C@@H](O)CC[C@]4(C)[C@H]3CC[C@]12C`, in test [1], the Imax was 50%. In addition, in test [2], the half-maximal inhibitory concentration (IC50) is 100 nM.

As for `CC(=O)[C@H]1CC[C@H]2[C@@H]3CC=C4CC[C@H](O)CC[C@]4(C)[C@H]3CC[C@]12C`, the Imax in test [1] came to 75.6%. This molecule had an IC50 in test [2] of 1200 nM.

With `CC(=O)[C@H]1CC[C@H]2[C@@H]3CC[C@H]4C[C@H](O)CC[C@]4(C)[C@H]3CC[C@]12C` [BREXANOLONE], the Imax in test [1] was 79.6%. In test [2], the IC50 came to 80 nM.

In test [1], `CC(=O)[C@H]1CC[C@H]2[C@@H]3CC=C4C[C@H](O)CCC[C@]4(C)[C@H]3CC[C@]12C` gave an Imax of 50.7%. Also, the half-inhibitory concentration (IC50) in test [2] worked out at 800 nM.

For orientation: IC50 means the concentration needed to halve the response being measured. Read a low IC50 as inhibition by little substance.
